Test results taken from PMC3173463, “Discovery of Dual-Action Membrane-Anchored Modulators of Incretin Receptors” (PLoS ONE, 2011).
Where no end group is shown, it is not given here.

Experiments:
GIP-R = molecular target: T1, GIP-R (Homo sapiens, UniProt P48546); experiment: CRE luciferase reporter gene assay, soluble ligands on GIP-R expressing cells; type: cell-based; conditions: soluble peptides, 6 hours stimulation; Figure 3B
T1 construct: expressed in transfected cells; host or cells: HEK293 cells, transient transfection, pcDNA1.1 plasmid
T1 sequence (P48546 22-466): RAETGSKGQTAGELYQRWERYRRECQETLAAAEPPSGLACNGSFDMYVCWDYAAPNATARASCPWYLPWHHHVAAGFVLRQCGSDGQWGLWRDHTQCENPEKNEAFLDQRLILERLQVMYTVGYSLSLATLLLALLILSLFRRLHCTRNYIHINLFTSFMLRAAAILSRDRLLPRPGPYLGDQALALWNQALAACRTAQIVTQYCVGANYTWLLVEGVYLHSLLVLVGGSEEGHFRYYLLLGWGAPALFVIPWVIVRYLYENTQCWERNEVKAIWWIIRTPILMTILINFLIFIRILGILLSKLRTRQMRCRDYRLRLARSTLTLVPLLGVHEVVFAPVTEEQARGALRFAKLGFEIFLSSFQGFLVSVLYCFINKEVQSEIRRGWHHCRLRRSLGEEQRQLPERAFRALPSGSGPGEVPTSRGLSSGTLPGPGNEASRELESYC
Procedure: HEK293 cells were transiently transfected with cDNAs encoding the indicated receptor and a CRE6X-LUC reporter gene construct. Twenty four hours post-transfection, cells were stimulated for 6 hours with soluble peptides; ligand-induced activity was then quantified.
Receptor-mediated signaling was assessed using a previously described luciferase assay [15], [18]. In brief, HEK293 cells were plated at a density of 3000–6000 cells per well into clear-bottom, white 96-well plates and grown for 1–2 days to ∼80% confluency. Cells were then transiently transfected using Lipofectamine^R reagent (Invitrogen, Carlsbad, CA) with cDNAs encoding (i) a GPCR (or the empty expression vector), (ii) a tethered ligand (where applicable), (iii) the CRE6X-LUC reporter gene and (iv) β-galactosidase (as a control for transfection efficiency). For experiments investigating the agonist function of soluble peptides, tethered ligand cDNA was not included in the transfection reaction. Twenty four hours after transfection, cells were incubated with or without selected soluble peptide in serum-free medium for 6 hours. Following ligand stimulation, the medium was gently aspirated, the cells were lysed and luciferase activity was quantified using a TopCount NTX after addition of Steadylite^R reagent (PerkinElmer, Boston, MA).

HA-tagged GIP-R = HA-tagged GIP-R cell surface expression by ELISA; type: cell-based, human; conditions: HEK 293, HA-GIPR, ELISA 48 hours after transfection, soluble ligand added 24 h after transfection; Figure 4A
Procedure: The impact of soluble peptide (A), tethered ligands (B) and the interaction between soluble and tethered ligands on HA-GIPR surface expression (C) was measured by ELISA. HEK 293 cells were transfected with a plasmid encoding the HA-tagged GIP-R, with or without increasing amounts of a tethered ligand cDNA. Twenty four hours after transfection, soluble ligands were added in selected wells, as indicated. In each experiment, receptor expression was evaluated 48 hours after transfection. […] Data represent the mean ± SEM from at least 4 independent experiments, each performed in 12 replicates. The expression of HA-GIPR in the absence vs presence of soluble or tethered ligand were compared by analysis of variance followed by Dunnett's post-test; significance, *, p<0.05; **, p<0.01.
The surface expression levels of myc-tagged tethered ligands or HA-tagged GIP-Rs were assessed using a previously-established procedure [15], [18]. HEK293 cells grown in 96-well clear Primaria plates (BD Biosciences, Bedford, MA) were transiently transfected with either pcDNA1.1 or a cDNA encoding the relevant epitope-tagged proteins (tethered ligand and/or GIP-R). […] Light absorbance at 450 nm was quantified as a measure of protein expression) using a SpectraMax^R microplate reader.

GLP-1R = molecular target: T2, GLP-1R (Homo sapiens, UniProt P43220); experiment: CRE luciferase reporter gene assay, membrane-tethered ligand co-transfected with GLP-1R; type: cell-based; conditions: CRE6X-LUC, relative to wild-type tethered construct; Figure 2A-B
T2 construct: expressed in transfected cells; host or cells: HEK293 cells, transient transfection, pcDNA1.1 plasmid
Procedure: Figure 2 Activity and selectivity of wild-type and G^7/K^7 derivatives of tGLP-1 and tEXE4. […] HEK 293 cells were transiently transfected with cDNAs encoding the GLP-1R or GIP-R, a tethered ligand, and a CRE6X-LUC reporter gene construct. Twenty four hours post-transfection, ligand-induced activity was quantified as described in Methods. […] Data represent the mean ± SEM from at least 4 independent experiments, each performed at least in quadruplicate.
Receptor-mediated signaling was assessed using a previously described luciferase assay, [18]. In brief, HEK293 cells were plated at a density of 3000–6000 cells per well into clear-bottom, white 96-well plates and grown for 1–2 days to ∼80% confluency. […] Following ligand stimulation, the medium was gently aspirated, the cells were lysed and luciferase activity was quantified using a TopCount NTX after addition of Steadylite^R reagent (PerkinElmer, Boston, MA). […] Substrate cleavage (an index of β-galactosidase expression was quantified by measurement of optical density at 420 nm using a SpectraMax^R microplate reader (Molecular Devices, Sunnyvale, CA). Corresponding values were used to normalize the luciferase data for transfection efficiency.

GIPR-CHE = experiment: Confocal microscopy of GIPR-CHE subcellular distribution; type: cell-based, human; conditions: HEK 293, 18 hours treatment, Figure 5A
Procedure: The impact of selected soluble peptides (A) and tethered ligands (B) on the subcellular distribution of GIPR-CHE was studied using confocal microscopy. HEK 293 cells were transiently transfected with a plasmid encoding the GIPR-CHE, with or without cDNA encoding a GFP-tagged tethered ligand. Twenty-four hours later, the cells were treated for 18 hours with a soluble peptide or the corresponding vehicle, as indicated. The subcellular distribution of receptor was then visualized.
Cells were transfected with plasmids encoding GIPR-CHE and tEXE4-GFP or tGLP1-GFP. Twenty-four hours later, the cells were treated for 18 h with media containing 100 nM of soluble GIP, followed by confocal microscopy imaging.
HEK293 cells were plated at a density of 150,000 cells per dish onto poly-L-lysine coated 35 mm glass bottom dishes (MatTek Corporation, Ashland, MA) and grown for 1 day to ∼60–80% confluency. Cells were then transfected with cDNA encoding GIPR-CHE and a GFP-tagged tethered ligand construct. In some experiments, soluble peptides were added 24 hours after transfection and cells were incubated at 37°C for an additional 18–24 hours before imaging. Forty eight hours following transfection, the cells were washed once with PBS and fixed with 4% paraformaldehyde in PBS for 10 minutes. […]

T2 sequence (P43220 24-463): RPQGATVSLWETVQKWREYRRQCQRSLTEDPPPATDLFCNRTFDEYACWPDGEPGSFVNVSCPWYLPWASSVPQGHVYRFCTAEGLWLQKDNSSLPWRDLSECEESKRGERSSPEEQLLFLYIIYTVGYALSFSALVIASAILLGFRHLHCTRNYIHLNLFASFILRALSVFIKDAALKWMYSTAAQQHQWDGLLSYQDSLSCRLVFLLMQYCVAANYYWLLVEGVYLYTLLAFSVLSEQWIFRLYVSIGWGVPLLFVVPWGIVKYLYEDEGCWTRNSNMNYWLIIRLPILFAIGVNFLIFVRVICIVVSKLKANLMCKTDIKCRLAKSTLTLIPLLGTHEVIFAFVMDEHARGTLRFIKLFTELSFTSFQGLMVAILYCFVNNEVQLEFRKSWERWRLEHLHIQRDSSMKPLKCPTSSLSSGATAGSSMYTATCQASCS

Substance | agonist activity of soluble peptide at the GIP-R (GIP-R) | GIP-R surface expression after prolonged incubation with soluble ligand (HA-tagged GIP-R) | tethered ligand-induced activity at the GLP-1R (GLP-1R) | GIPR-CHE subcellular distribution after soluble peptide (GIPR-CHE)
glucagon-like peptide-1 [GLP-1] | even lower potency agonist | no effect | – | –
[G^7]tGLP-1: membrane-tethered GLP-1 with glycine at position 7 (GAEGTFTSDVSSYLEGQAAKEFIAWLVKGRG; also: fused with epitope tag, linkers, membrane-anchoring sequence; UniProt P01275 98-128, looked up, variant H7G) | – | – | activity comparable to the corresponding unmodified ligands | –
glucose-dependent insulinotropic polypeptide [GIP] | – | markedly reduced | – | massive GIPR-CHE endocytosis
